Data: patent publication US6472348B1, “Pyridone derivatives and herbicides” (Kumiai Chemical Industry Co., Ltd., priority 1996, dated 2002)

Columns and labels:
cotton (Go) = assay: Test Example 4: crop plant selectivity by upland field soil treatment (cotton), phytotoxicity; assay type: in vivo; design: scale not given here; conditions: evaluated 21st day after application
Method in brief: (§1)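 Sand-filled pots, seeds sown then soil-covered; soil application; greenhouse culture; visual scoring of weed control and cotton injury at day 21 post-application.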

Diaitaria ciliaris (Di) [1] = assay: Test Example 4: crop plant selectivity by upland field soil treatment (cotton), herbicidal effects; assay type: in vivo; conditions: evaluated 21st day after application
Experimental: (Test on Crop Plant Selectivity by Upland Field Soil Treatment)
In a plastic pot (surface area: 600 cm^2) filled with sand, cotton (Go), Diaitaria ciliaris (Di), green foxtail (Se), pale smartweed (Po), slender amaranth (Am), common lambsquarters (Ch) and China jute (Ab) were sown and covered with soil. […] The plants were then cultured in a green house, and the evaluation of the herbicidal effects and phytotoxicity was conducted on the 21st day after the application in accordance with the standards as identified in Table 47. Symbol—represents “not tested”.

rice flatsedge (Ci) [2] = assay: Test Example 3: herbicidal effects by upland field foliage treatment; assay type: in vivo; design: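 grade of growth control; 5 = at least 90%; 4 = 70 to 90%; 3 = 50 to 70%; 2 = 30 to 50%; 1 = 10 to 30%; 0 = under 10%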
Method in brief: (§2)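 Greenhouse test, upland conditions: seeds sown in sand pots of 120 cm^2 area and overlaid with soil; 2 weeks growth; leaves treated; herbicidal injury graded on day 14 after treatment by fixed standards.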

barnyardgrass (Ec) [3] = assay: as above; assay type: in vivo; design: scale not given here
Method in brief: as §2

[4] = system: common lambsquarters (Ch); assay: as above; assay type: in vivo; design: scale not given here
Method in brief: as §2

pale smartweed (Po) [5] = assay: as above; assay type: in vivo; design: scale not given here
Method in brief: as §2

Diaitaria ciliaris (Di) [6] = assay: as above; assay type: in vivo; design: scale not given here
Method in brief: as §2

slender amaranth (Am) [7] = assay: as above; assay type: in vivo; design: scale not given here
Method in brief: as §2

rice flatsedge (Ci) [8] = assay: Test Example 2: herbicidal effects by upland field soil treatment; assay type: in vivo; conditions: 100 g of the active ingredient per 10 ares;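 further: grade of growth control; 5 = at least 90%; 4 = 70 to 90%; 3 = 50 to 70%; 2 = 30 to 50%; 1 = 10 to 30%; 0 = under 10%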
Source text: (§3) (Test on Herbicidal Effects by Upland Field Soil Treatment)

barnyardgrass (Ec) [9] = assay: as above; assay type: in vivo; conditions: 100 g of the active ingredient per 10 ares
Source text: as §3

[10] = system: common lambsquarters (Ch); assay: as above; assay type: in vivo; conditions: 100 g of the active ingredient per 10 ares
Source text: as §3

pale smartweed (Po) [11] = assay: as above; assay type: in vivo; conditions: 100 g of the active ingredient per 10 ares
Source text: as §3

Digitaria ciliaris (Di) = assay: as above; assay type: in vivo; conditions: 100 g of the active ingredient per 10 ares;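 further: grade of growth control; 5 = at least 90%; 4 = 70 to 90%; 3 = 50 to 70%; 2 = 30 to 50%; 1 = 10 to 30%; 0 = under 10%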
Source text: as §3

slender amaranth (Am) [12] = assay: as above; assay type: in vivo; conditions: 100 g of the active ingredient per 10 ares
Source text: as §3

bulrush (Sc) = assay: Test Example 1: herbicidal effects by paddy field soil treatment; assay type: in vivo; conditions: 100 g of the active ingredient per 10 ares, 21st day after the application, index 0-5 of Table 47;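 further: grade of growth control; 5 = at least 90%; 4 = 70 to 90%; 3 = 50 to 70%; 2 = 30 to 50%; 1 = 10 to 30%; 0 = under 10%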
Method in brief: (§4)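 Herbicidal effect was scored against a graded standard 21 days after treatment. Seeds were sown in puddled, leveled paddy soil flooded to 3 cm depth, and the active ingredient was applied at 100 g per 10 ares before greenhouse culture.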

barnyardgrass (Ec) [13] = assay: as above; assay type: in vivo; conditions: 100 g of the active ingredient per 10 ares, 21st day after the application, index 0-5 of Table 47
Method in brief: as §4

monochoria (Mo) = assay: as above; assay type: in vivo; conditions: 100 g of the active ingredient per 10 ares, 21st day after the application, index 0-5 of Table 47;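 further: grade of growth control; 5 = at least 90%; 4 = 70 to 90%; 3 = 50 to 70%; 2 = 30 to 50%; 1 = 10 to 30%; 0 = under 10%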
Method in brief: as §4

[14] = system: common lambsquarters (Ch); assay: Test Example 4: crop plant selectivity by upland field soil treatment (cotton), herbicidal effects; assay type: in vivo; design: scale not given here; conditions: evaluated 21st day after application
Method in brief: as §1

green foxtail (Se) = assay: as above; assay type: in vivo; design: scale not given here; conditions: dose 6.3 g ai/10 a, evaluated 21st day after application
Method in brief: as §1

pale smartweed (Po) [15] = assay: as above; assay type: in vivo; design: scale not given here; conditions: evaluated 21st day after application
Method in brief: as §1

slender amaranth (Am) [16] = assay: as above; assay type: in vivo; design: scale not given here; conditions: evaluated 21st day after application
Method in brief: as §1

China jute (Ab) [17] = assay: as above; assay type: in vivo; design: scale not given here; conditions: evaluated 21st day after application
Method in brief: as §1

corn (Ze) = assay: Test Example 11: crop plant selectivity by upland field foliage treatment (corn), phytotoxicity; conditions: upland field foliage treatment, dose 1.6 g ai/10a, 14th day after treatment
Method in brief: (§5)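 Corn with pale smartweed, slender amaranth, common lambsquarters and China jute sown in sand-filled pots and grown 2 weeks in a greenhouse before foliage treatment. Herbicidal effect and crop phytotoxicity scored on day 14 after treatment against a rating standard.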

[18] = system: common lambsquarters (Ch); assay: Test Example 10: crop plant selectivity by upland field foliage treatment (soybean), herbicidal effects; assay type: in vivo; conditions: dose 1.6 g ai/10a, 14th day after treatment
Experimental: (§6) (Test on Crop Plant Selectivity by Upland Field Foliage Treatment)
(§7) In a plastic pot (surface area: 600 cm^2) filled with sand, soybean (Gl), pale smartweed (Po), slender amaranth (Am), common lambsquarters (Ch) and China jute (Ab) were sown and cultured in a green house for 2 weeks. […] The plants were then cultured in a green house, and the evaluation of the herbicidal effects and phytotoxicity was conducted on the 14th day after the treatment in accordance with the standards as identified in Table 47.

pale smartweed (Po) [19] = assay: as above; assay type: in vivo; conditions: dose 1.6 g ai/10a, 14th day after treatment
Experimental: as §6, §7

slender amaranth (Am) [20] = assay: as above; assay type: in vivo; conditions: dose 1.6 g ai/10a, 14th day after treatment
Experimental: as §6, §7

China jute (Ab) [21] = assay: as above; assay type: in vivo; conditions: dose 1.6 g ai/10a, 14th day after treatment
Experimental: as §6, §7

soybean (Gl) = assay: Test Example 10: crop plant selectivity by upland field foliage treatment (soybean), phytotoxicity; conditions: dose 1.6 g ai/10a, 14th day after treatment
Experimental: as §6, §7

[22] = system: common lambsquarters (Ch); assay: Test Example 9: crop plant selectivity by upland field foliage treatment (wheat), herbicidal effects; assay type: in vivo; design: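 grade of growth control; 5 = at least 90%; 4 = 70 to 90%; 3 = 50 to 70%; 2 = 30 to 50%; 1 = 10 to 30%; 0 = under 10%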; conditions: dose 1.6 g ai/10a, 14th day after treatment
Method in brief: (§8)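 Wheat and weeds sown in sand-filled pots, grown 2 weeks in a greenhouse, then foliage-treated. Herbicidal effect and crop phytotoxicity were scored 14 days after treatment against a rating scale.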

pale smartweed (Po) [23] = assay: as above; assay type: in vivo; design: scale not given here; conditions: dose 1.6 g ai/10a, 14th day after treatment
Method in brief: as §8

slender amaranth (Am) [24] = assay: as above; assay type: in vivo; design: scale not given here; conditions: dose 1.6 g ai/10a, 14th day after treatment
Method in brief: as §8

China jute (Ab) [25] = assay: as above; assay type: in vivo; design: scale not given here; conditions: dose 1.6 g ai/10a, 14th day after treatment
Method in brief: as §8

[26] = system: common lambsquarters (Ch); assay: Test Example 11: crop plant selectivity by upland field foliage treatment (corn), herbicidal effects; assay type: in vivo; design: scale not given here; conditions: upland field foliage treatment (corn test), dose 1.6 g ai/10a, 14th day after treatment
Method in brief: as §5

pale smartweed (Po) [27] = assay: as above; assay type: in vivo; design: scale not given here; conditions: upland field foliage treatment (corn test), dose 1.6 g ai/10a, 14th day after treatment
Method in brief: as §5

slender amaranth (Am) [28] = assay: as above; assay type: in vivo; design: scale not given here; conditions: upland field foliage treatment (corn test), dose 1.6 g ai/10a, 14th day after treatment
Method in brief: as §5

China jute (Ab) [29] = assay: as above; assay type: in vivo; design: scale not given here; conditions: upland field foliage treatment (corn test), dose 1.6 g ai/10a, 14th day after treatment
Method in brief: as §5

wheat (Tr) = assay: Test Example 9: crop plant selectivity by upland field foliage treatment (wheat), phytotoxicity; conditions: dose 1.6 g ai/10a, 14th day after treatment
Method in brief: as §8

[30] = 100 g of the active ingredient per 10 ares, evaluated on the 14th day after treatment
[31] = 21st day after the application, index 0-5 of Table 47
[32] = evaluated on the 21st day after application
[33] = 100 g active ingredient per 10 ares, evaluated 14th day after treatment

SMILES	Herbicidal effects Ci (rice flatsedge (Ci) [2]; [30])	Herbicidal effects Ec (barnyardgrass (Ec) [3]; [30])	Herbicidal effects Ch [4, 30]	Herbicidal effects Po (pale smartweed (Po) [5]; [30])	Herbicidal effects Di (Diaitaria ciliaris (Di) [6]; [30])	Herbicidal effects Am (slender amaranth (Am) [7]; [30])	Herbicidal effects Sc (bulrush (Sc))	Herbicidal effects Ec (barnyardgrass (Ec) [13])	Herbicidal effects Mo (monochoria (Mo))	Phytotoxicity Ze (corn (Ze))	Herbicidal effects Ch [22]	Herbicidal effects Po (pale smartweed (Po) [23])	Herbicidal effects Am (slender amaranth (Am) [24])	Herbicidal effects Ab (China jute (Ab) [25])	Herbicidal effects Ch [26]	Herbicidal effects Po (pale smartweed (Po) [27])	Herbicidal effects Am (slender amaranth (Am) [28])	Herbicidal effects Ab (China jute (Ab) [29])	Phytotoxicity Tr (wheat (Tr))	Herbicidal effects Ci (rice flatsedge (Ci) [8]; [32])	also measured
CC(C)Oc1cc(-c2ccc(C(F)(F)F)n(C)c2=O)c(F)cc1Cl [Compound No. 1-14]	5	5	5	5	5	5	5	5	5												Phytotoxicity Go (cotton (Go); dose 1.6 g ai/10 a): 0; Phytotoxicity Go (cotton (Go); dose 6.3 g ai/10 a): 0; Herbicidal effects Di (Diaitaria ciliaris (Di) [1]; dose 1.6 g ai/10 a): 5; Herbicidal effects Di (Diaitaria ciliaris (Di) [1]; dose 6.3 g ai/10 a): 5; Herbicidal effects Ci (rice flatsedge (Ci) [8]; [31]): 5; Herbicidal effects Ec (barnyardgrass (Ec) [9]; [31]): 5; Herbicidal effects Ch [10, 31]: 5; Herbicidal effects Po (pale smartweed (Po) [11]; [31]): 5; Herbicidal effects Di (Digitaria ciliaris (Di); [31]): 5; Herbicidal effects Am (slender amaranth (Am) [12]; [31]): 5; Herbicidal effects Ch ([14]; dose 1.6 g ai/10 a): 5; Herbicidal effects Ch ([14]; dose 6.3 g ai/10 a): 5; Herbicidal effects Se (green foxtail (Se)): 5; Herbicidal effects Po (pale smartweed (Po) [15]; dose 1.6 g ai/10 a): 5; Herbicidal effects Po (pale smartweed (Po) [15]; dose 6.3 g ai/10 a): 5; Herbicidal effects Am (slender amaranth (Am) [16]; dose 1.6 g ai/10 a): 5; Herbicidal effects Am (slender amaranth (Am) [16]; dose 6.3 g ai/10 a): 5; Herbicidal effects Ab (China jute (Ab) [17]; dose 1.6 g ai/10 a): 4; Herbicidal effects Ab (China jute (Ab) [17]; dose 6.3 g ai/10 a): 5
Cn1c(C(F)(F)F)ccc(-c2cc(Oc3ccccc3)c(Cl)cc2F)c1=O [Compound No. 1-22]	5	5	5	5	5	5	5	5	5	2	5	5	5	5	5	5	5	5	2		Herbicidal effects Ch [18]: 5; Herbicidal effects Po (pale smartweed (Po) [19]): 5; Herbicidal effects Am (slender amaranth (Am) [20]): 5; Herbicidal effects Ab (China jute (Ab) [21]): 5; Phytotoxicity Gl (soybean (Gl)): 2
Cn1c(C(F)(F)F)ccc(-c2c(F)cc(Cl)c3oc(C(=O)O)cc23)c1=O [Compound No. 4-26, 3-(2-carboxy-7-chloro-5-fluorobenzofuran-4-yl)-1-methyl-6-trifluoromethyl-2-(1H)-pyridone]							5	5	5	1					5	5	5	5		5	Herbicidal effects Ec (barnyardgrass (Ec) [9]; [32]): 5; Herbicidal effects Ch [10, 32]: 5; Herbicidal effects Po (pale smartweed (Po) [11]; [32]): 5; Herbicidal effects Di (Digitaria ciliaris (Di); [32]): 5; Herbicidal effects Am (slender amaranth (Am) [12]; [32]): 5; melting point: 233 to 235 °C
Cn1c(C(F)(F)F)ccc(-c2c(F)cc(Cl)c3oc(C(Br)Br)cc23)c1=O [Compound No. 4-27, 3-(7-chloro-2-dibromomethyl-5-fluorobenzofuran-4-yl)-1-methyl-6-trifluoromethyl-2-(1H)-pyridone]							5	5	5	2	5	5	5	5	5	5	5	5	2	5	Herbicidal effects Ci (rice flatsedge (Ci) [2]; [33]): 5; Herbicidal effects Ec (barnyardgrass (Ec) [3]; [33]): 4; Herbicidal effects Ch [4, 33]: 5; Herbicidal effects Po (pale smartweed (Po) [5]; [33]): 5; Herbicidal effects Di (Diaitaria ciliaris (Di) [6]; [33]): 5; Herbicidal effects Am (slender amaranth (Am) [7]; [33]): 5; Herbicidal effects Ec (barnyardgrass (Ec) [9]; [32]): 4; Herbicidal effects Ch [10, 32]: 5; Herbicidal effects Po (pale smartweed (Po) [11]; [32]): 5; Herbicidal effects Di (Digitaria ciliaris (Di); [32]): 5; Herbicidal effects Am (slender amaranth (Am) [12]; [32]): 5; melting point: 107 to 109 °C
